The term inhibition in vivo denotes how much of the control response was suppressed. The pIC50 is −log10 of the IC50, conventionally taken in molar units. A word on the IC50: it is the concentration at which inhibition is half-maximal.

Data on eight compounds can be found in ChEMBL document CHEMBL5226289, “Discovery of natural anti-inflammatory alkaloids: Potential leads for the drug discovery for the treatment of inflammation” (Eur J Med Chem, 2021).

pIC50: −log10 of the molar value. ≈ marks a conversion by molar mass, not a printed value.

In experiment [1] the test system is Mus musculus. Kind of experiment: Antiinflammatory activity in croton oil-induced Swiss mouse model of ear edema assessed as reduction in MPO activity administered via surface of left ear measured after 6 hrs relative to control. More on the design: scale not given: the % may be the effect or the level left. Type of experiment: functional. The conditions noted are these: route au.

The subject of experiment [2] is Mus musculus. Kind of experiment: Antiinflammatory activity in Swiss mouse assessed as reduction in croton oil-induced ear edema administered via surface of left ear measured after 6 hrs relative to control. Type of experiment: functional. Conditions: route au. More on the design: scale not given: the % may be the effect or the level left.
For experiment [3], the system named is Rattus norvegicus. Kind of experiment: Antiinflammatory activity in Wistar albino rat assessed as inhibition of carrageenan-induced paw edema at 20 mg/kg, po preadministered for 1 hrs followed by carrageenan administration and measured upto 10 hrs by Plethysmometer. Type of experiment: functional. Conditions: time <= 11 hrs. A general note: The carrageenan paw model is a standard test of acute inflammation.

Another experiment has as its system RAW264.7. Kind of experiment: Inhibition of NO production in LPS-stimulated mouse RAW264.7 cells preincubated with compound for 4 hrs followed by LPS stimulation and measured after 24 hrs by Griess reagent-based assay. Type of experiment: functional, cell-based.
The test system of experiment [4] is THP-1. Nature of the experiment: Antiinflammatory activity in human THP-1 cells assessed as inhibition of IL-6 production. Type of experiment: functional.
The test system of experiment [5] is THP-1. Kind of experiment: Antiinflammatory activity in human THP-1 cells assessed as inhibition of TNF-alpha production. Type of experiment: functional.
Experiment [6] deals with HT-1080. Kind of experiment: Antiinflammatory activity in human HT-1080 cells assessed as inhibition of IL-6 production. Type of experiment: functional.
The test system of experiment [7] is HT-1080. Nature of the experiment: Antiinflammatory activity in human HT-1080 cells assessed as inhibition of TNF-alpha production. Type of experiment: functional.
The target in experiment [8] is T1, Prostaglandin G/H synthase 2 (Homo sapiens, UniProt P35354).
T1 sequence (P35354 whole entry): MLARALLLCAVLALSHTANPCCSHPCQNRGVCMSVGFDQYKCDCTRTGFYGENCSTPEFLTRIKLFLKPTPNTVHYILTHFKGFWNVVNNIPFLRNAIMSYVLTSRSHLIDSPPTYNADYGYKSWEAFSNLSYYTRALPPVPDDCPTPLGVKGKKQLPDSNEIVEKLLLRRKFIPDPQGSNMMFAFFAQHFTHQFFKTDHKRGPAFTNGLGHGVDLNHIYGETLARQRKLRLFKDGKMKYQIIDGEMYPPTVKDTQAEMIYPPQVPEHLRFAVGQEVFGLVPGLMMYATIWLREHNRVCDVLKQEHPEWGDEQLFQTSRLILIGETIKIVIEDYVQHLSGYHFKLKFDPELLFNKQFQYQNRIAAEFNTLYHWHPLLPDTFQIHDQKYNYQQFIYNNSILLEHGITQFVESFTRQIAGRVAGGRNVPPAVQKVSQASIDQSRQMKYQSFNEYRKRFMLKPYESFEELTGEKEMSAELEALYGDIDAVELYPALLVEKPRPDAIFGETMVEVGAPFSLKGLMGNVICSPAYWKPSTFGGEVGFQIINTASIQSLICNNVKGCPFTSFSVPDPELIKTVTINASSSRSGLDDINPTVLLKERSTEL
Nature of the experiment: Inhibition of human recombinant COX-2 expressed in baculovirus infected Sf21 cells using arachidonic acid as substrate by spectrophotometric analysis.

Experiment [9] is described as follows: Inhibition of goat 5-LOX by spectrophotometric analysis. More on the design: species or system Capra hircus.
Experiment [10] has as its system Rattus norvegicus. Kind of experiment: Antiinflammatory activity in Wistar albino rat assessed as inhibition of CFA-induced paw edema at 10 mg/kg, po preadministered for 24 hrs followed by CFA administration and measured after 16 days. Conditions: 408 h, time 17 day. Type of experiment: functional.
Experiment [11] can be described thus: Inhibition of TNF-alpha production in LPS-induced human U-937 cells preincubated with compound for 30 mins followed by LPS induction and measured after 4 hrs. Type of experiment: functional, cell-based.

Turning to `CN1C[C@H](O)C[C@H]1C(=O)O`, the figures for the Activity in the experiment on Mus musculus [1] and with Mus musculus [2] were 59.7% and 26.8%, respectively.

In the case of `OC1CCN2Cc3ccccc3N=C12` (configuration not stated), in the experiment on Rattus norvegicus [3], the inhibition in vivo at 20 mg/kg is 59.5%.

As to `COc1cc(/C=C/CO)ccc1O[C@H]1CCCNC1=O`, the pIC50 in the experiment on RAW264.7 was 4.74.

Turning to `CC(=O)O[C@H]1CN(C)CC[C@H]1c1c(O)cc(O)c2c(=O)cc(C)oc12`, the “inhibition (INH)” value in the experiment with THP-1 [4] is listed as 20.5%; with THP-1 [5], 81.1%.

With `Cc1cc(=O)c2c(O)c([C@H]3CCN(C)C[C@H]3O)c(O)cc2o1`, the “inhibition (INH)” value is reported as 83% with HT-1080 [6] and 47% in the experiment on HT-1080 [7].

With `CC[C@H](CCCC[C@@H]1/C=C\CN/C=C\C1)C[C@@H]1CCC(=O)ON1`, the pIC50 in [8] is 2.60. In addition, the IC50 in experiment [9] was determined as 900 µg/mL (≈ 2810 µM).

Regarding `O=c1c2ccccc2nc2n1CCC2O` (configuration not stated), in the experiment with Rattus norvegicus [10], the inhibition in vivo at 10 mg/kg is 63.9%.

As to `CCCCCCCCCC(=O)C/C(=C\c1cc(CCC)ncc1C(=O)OC)C(C)=O`, the pIC50 in [11] was 5.82.
